Assay results from publication PMC12396409, “Screening and hit evaluation of a microbial metabolite library against the pathogenic Plasmodium falciparum and Toxoplasma gondii parasites” (International Journal for Parasitology: Drugs and Drug …, 2025).
Where two headings read alike, the source gives them in different places.

Columns and labels:
[1] = test system: T. gondii RH strain (RH-Tub-eYFP) tachyzoites; test: microbe, parasite or virus in culture; assay type: cell-based, Toxoplasma gondii; settings: for percent parasite growth at 2 µg/mL: Toxoplasma gondii
[2] = test system: P. falciparum 3D7 parasites; test: P. falciparum growth inhibition assay, 1-cycle (72 h treatment), SYBR DNA staining (library screen at 2 μg/mL and dose-response); assay type: cell-based, Plasmodium falciparum; settings: for activity at 2 µg/mL: Plasmodium falciparum
[3] = test system: P. falciparum 3D7 parasites; test: P. falciparum growth inhibition assay, 2-cycle (120 h treatment), delayed-death screen and dose-response; assay type: cell-based, Plasmodium falciparum; settings: for activity at 2 µg/mL: Plasmodium falciparum
[4] = library screen at 2 μg/mL, 72 h, % growth, replicate 1
[5] = library screen at 2 μg/mL, 72 h, % growth, replicate 2

`CC1=C[C@H](O/C=C2/C(=O)O[C@@H]3c4ccccc4C[C@H]23)OC1=O` [BIA-G1793] was tested, and the Tg_72h_%Growth_Rep1 ([1]; T. gondii RH, 72 h, library screen at 2 μg/mL, % growth, replicate 1) was 120.90%, the Tg_72h_%Growth_Rep2 ([1]; T. gondii RH, 72 h, library screen at 2 μg/mL, % growth, replicate 2) was 91.67% and the Pf_72h_%Growth_Rep1 ([2]; P. falciparum 3D7, 72 h, library screen at 2 μg/mL, % growth, replicate 1) was 84.39%. It also gave a Pf_72h_%Growth_Rep2 ([2]; P. falciparum 3D7, 72 h, library screen at 2 μg/mL, % growth, replicate 2) of 84.87%, a Pf_120h_%Growth_Rep1 ([3]; P. falciparum 3D7, 120 h, library screen at 2 μg/mL, % growth, replicate 1) of 86.54% and a Pf_120h_%Growth_Rep2 ([3]; P. falciparum 3D7, 120 h, library screen at 2 μg/mL, % growth, replicate 2) of 104.67%.
`O=c1cc([O-])c1=O.[Na+]` [BIA-M1269] showed a Tg_72h_%Growth_Rep1 ([1]; T. gondii, 72 h, parasite screen at 2 μg/mL, % growth, replicate 1) of 105.46%, a Tg_72h_%Growth_Rep2 ([1]; T. gondii, 72 h, parasite screen at 2 μg/mL, % growth, replicate 2) of 100.53% and a Pf_72h_%Growth_Rep1 ([2]; P. falciparum 3D7, 72 h, parasite screen at 2 μg/mL, % growth, replicate 1) of 85.51%. For the same compound, the Pf_72h_%Growth_Rep2 ([2]; P. falciparum 3D7, 72 h, parasite screen at 2 μg/mL, % growth, replicate 2) was 86.48%, the Pf_120h_%Growth_Rep1 ([3]; P. falciparum 3D7, 120 h, parasite screen at 2 μg/mL, % growth, replicate 1) was 98.81% and the Pf_120h_%Growth_Rep2 ([3]; P. falciparum 3D7, 120 h, parasite screen at 2 μg/mL, % growth, replicate 2) was 138.01%.
Eprinomectin was tested, and the Tg_72h_%Growth_Rep1 [1, 4] was 130.43%, the Tg_72h_%Growth_Rep2 [1, 5] was 107.67% and the Pf_72h_%Growth_Rep1 [2, 4] was 61.67%. It also gave a Pf_72h_%Growth_Rep2 [2, 5] of 29.66%, a Pf_120h_%Growth_Rep1 ([3]; library screen at 2 μg/mL, 120 h, % growth, replicate 1) of 33.01% and a Pf_120h_%Growth_Rep2 ([3]; library screen at 2 μg/mL, 120 h, % growth, replicate 2) of 14.57%.
With `CC1=C[C@@H]2/C=C(\C)CC[C@H](O)[C@H](O)/C=C/C(=O)[C@]23C(=O)N[C@@H](CC(C)C)[C@@H]3[C@@H]1C` [Aspochalasin D] the percent parasite growth at 2 µg/mL ([1]; 72 h, library screen at 2 μg/mL, 72 h, % growth, replicate 1, read-out: Tg_72h_%Growth_Rep1) was 5.85%, the percent parasite growth at 2 µg/mL ([1]; 72 h, library screen at 2 μg/mL, 72 h, % growth, replicate 2, read-out: Tg_72h_%Growth_Rep2) was 2.85% and the activity at 2 µg/mL ([2]; 3D7, 72 h, library screen at 2 μg/mL, 72 h, % growth, replicate 1, read-out: Pf_72h_%Growth_Rep1) was 71.8%. The activity at 2 µg/mL ([2]; 3D7, 72 h, library screen at 2 μg/mL, 72 h, % growth, replicate 2, read-out: Pf_72h_%Growth_Rep2) was 78.2%, the activity at 2 µg/mL ([3]; 3D7, 120 h, library screen at 2 μg/mL, 120 h, % growth, replicate 1, read-out: Pf_120h_%Growth_Rep1) was 74.4% and the activity at 2 µg/mL ([3]; 3D7, 120 h, library screen at 2 μg/mL, 120 h, % growth, replicate 2, read-out: Pf_120h_%Growth_Rep2) was 80.7%.
For `CO[C@H]1C[C@H](O[C@@H]2/C(C)=C/C[C@@H]3C[C@@H](C[C@]4(CC[C@H](C)[C@@H](C5CCCCC5)O4)O3)OC(=O)[C@@H]3C=C(C)/C(=N/O)[C@H]4OC/C(=C\C=C\[C@@H]2C)[C@]43O)O[C@@H](C)[C@@H]1O` [selamectin, reference compound], the percent parasite growth at 2 µg/mL ([1]; 72 h, read-out: Tg_72h_%Growth_Rep1) was 116%, the percent parasite growth at 2 µg/mL ([1]; 72 h, read-out: Tg_72h_%Growth_Rep2) was 78.2% and the “selectivity for P. falciparum in the screens” value [2] was “selective for P. falciparum”. For the same compound, the activity at 2 µg/mL ([2]; 3D7, P. falciparum, 72 h, parasite screen 2 μg/mL, % growth, replicate 1, read-out: Pf_72h_%Growth_Rep1) was 3.56%, the activity at 2 µg/mL ([2]; 3D7, P. falciparum, 72 h, parasite screen 2 μg/mL, % growth, replicate 2, read-out: Pf_72h_%Growth_Rep2) was 6.13% and the activity at 2 µg/mL ([3]; 3D7, P. falciparum, 120 h, parasite screen 2 μg/mL, % growth, replicate 1, read-out: Pf_120h_%Growth_Rep1) was 2.99%. For the same compound, the activity at 2 µg/mL ([3]; 3D7, P. falciparum, 120 h, parasite screen 2 μg/mL, % growth, replicate 2, read-out: Pf_120h_%Growth_Rep2) was 8.34%.
In the case of `COc1cc2c(c3oc(=O)c4c(c13)CCC4=O)[C@@H]1CCO[C@@H]1O2` [Aflatoxin B2], the Tg_72h_%Growth_Rep1 [1] is reported as 112.94%, the Tg_72h_%Growth_Rep2 [1] is reported as 92.34% and the Pf_72h_%Growth_Rep1 [2] is reported as 82.21%. It also gave a Pf_72h_%Growth_Rep2 [2] of 80.10%, a Pf_120h_%Growth_Rep1 [3] of 93.01% and a Pf_120h_%Growth_Rep2 [3] of 84.17%.
Compound `CC(=O)O[C@@H]1CC(=O)OC(C)(C)[C@H]2CC[C@@]3(C)[C@@H](CC=C(C)[C@]34C[C@]3(OC(C)=C(C)C3=O)C(=O)O4)[C@@]21C` [Setosusin] has a Tg_72h_%Growth_Rep1 ([1]; T. gondii, 72 h, parasite screen 2 μg/mL, % growth, replicate 1) of 121.79%, a Tg_72h_%Growth_Rep2 ([1]; T. gondii, 72 h, parasite screen 2 μg/mL, % growth, replicate 2) of 85.10% and a Pf_72h_%Growth_Rep1 ([2]; P. falciparum, 72 h, parasite screen 2 μg/mL, % growth, replicate 1) of 71.51%. It also gave a Pf_72h_%Growth_Rep2 ([2]; P. falciparum, 72 h, parasite screen 2 μg/mL, % growth, replicate 2) of 99.05%, a Pf_120h_%Growth_Rep1 ([3]; P. falciparum, 120 h, parasite screen 2 μg/mL, % growth, replicate 1) of 76.96% and a Pf_120h_%Growth_Rep2 ([3]; P. falciparum, 120 h, parasite screen 2 μg/mL, % growth, replicate 2) of 104.05%.
